Measurements: patent publication US6468476B1, “Methods for using-co-regulated genesets to enhance detection and classification of gene expression patterns” (Rosetta Inpharmatics, Inc., priority 1998, dated 2002)

Test system: genes regulated by the Gcn4 transcription factor
Assay: Transcript response (DNA microarray) to a titration series of FK506, genes of the Gcn4 geneset
Type: cell-based, Saccharomyces cerevisiae
Procedure: Yeast (Saccharomyces cerevisiae, Strain YPH499, see, Sikorski and Hieter, 1989, A system of shuttle vectors and yeast host strains designated for efficient manipulation of DNA in Saccharomyces cerevisiae, Genetics 122:19-27) cells were grown in YAPD at 30° C. to an OD600 of 1.0 (±0.2), and total RNA prepared by breaking cells in phenol/chloroform and 0.1% SDS by standard procedures (Ausubel et al., 1995, Current Protocols in Molecular Biology, Greene Publishing and Wiley-Interscience, New York, Ch. 13). Poly(A)^+ RNA was selected by affinity chromatography on oligo-dT cellulose (New England Biolabs) essentially as described in Sambrook et al. (Molecular Cloning—A Laboratory Manual (2nd Ed.), Vol. 1, Cold Spring Harbor Laboratory, Cold Spring Harbor, N.Y., 1989). First strand cDNA synthesis was carried out with 2 μg poly(A)^+ RNA and SuperScript™ II reverse transcriptase (Gibco-BRL) according to the manufacturer's instructions with the following modifications. Deoxyribonucleotides were present at the following concentrations: dA, dG, and dC at 500 μM each, dT at 100 μM and either Cy3-dUTP or Cy5-dUTP (Amersham) at 100 μM. cDNA synthesis reactions were carried out at 42-44° C. for 90 minutes, after which RNA was degraded by the addition of 2 units of RNAse H, and the cDNA products were purified by two successive rounds of centrifugation dialysis using MICROCON-30 microconcentrators (Amicon) according to the manufacturer's recommendations.
Double-stranded DNA polynucleotides corresponding in sequence to each ORF in the S. cerevisiae genome encoding a polypeptide greater than 99 amino acids (based on the published yeast genomic sequence, e.g., Goffeau et al., 1996, Science 274:546-567) are made by polymerase chain reaction (PCR) amplification of yeast genomic DNA. Two PCR primers are chosen internal to each of the ORFs according to two criteria: (i) the amplified fragments are 300-800 bp and (ii) none of the fragments have a section of more than 10 consecutive nucleotides of sequence in common. Computer programs are used to aid in the design of the PCR primers. Amplification is carried out in 96 well microtitre plates. The resulting DNA fragments are printed onto glass microscope slides using the method of Shalon et al., 1996, Genome Research 6:639-645.
Fluorescently-labeled cDNAs (2-6 μg) are resuspended in 4×SSC plus 1 μg/μl tRNA as carrier and filtered using […] filters (Millipore, Bedford, Mass.). SDS is added to 0.3%, prior to heating to 100° C. for 2 minutes. Probes are cooled and immediately hybridized to the microarrays produced as described in Example 6.2, for 4 hours at 65° C. Non-hybridized probe is removed by washing in 1×SSC plus 0.1% SDS at ambient temperature for 1-2 minutes. Microarrays are scanned with a fluorescence laser-scanning device as previously described (Schena et al., 1995, Science 270:467-470; Schena et al., 1995, Proc. Natl. Acad. Sci. USA 93:[…]) and the results (including the positions of perturbations) are recorded.
Geneset number 3 in the clustering analysis result of FIG. 6 involves genes regulated by the Gcn4 transcription factor. This was verified via the literature and via multiple sequence alignment analysis of the regulatory regions 5′ to the individual genes (Stormo and Hartzell, 1989, Identifying protein binding sites from unaligned DNA fragments, Proc Natl Acad Sci 86:1183-1187; Hertz and Stormo, 1995, Identification of consensus patterns in unaligned DNA and protein sequences: a large-deviation statistical basis for penalizing gaps, Proc of 3rd Intl Conf on Bioinformatics and Genome Research, Lim and Cantor, eds., World Scientific Publishing Co., Ltd. Singapore, pp. 201-216). […] These 20 were used to define a geneset. Response profiles to a titration series of the drug FK506, which is known to hit this pathway at higher concentrations, were projected onto this geneset. […]

Question: With `C=CC[C@@H]1/C=C(\C)C[C@H](C)C[C@H](OC)[C@H]2O[C@@](O)(C(=O)C(=O)N3CCCC[C@H]3C(=O)O[C@H](/C(C)=C/[C@@H]3CC[C@@H](O)[C@H](OC)C3)[C@H](C)[C@@H](O)CC1=O)[C@H](C)C[C@@H]2OC` [FK506] as the molecule, how does the “Geneset Average response (projected response of the 20-gene Gcn4 geneset)” value (“Geneset Average response” below) (FK506 7.5 μg/ml) read?
Answer: 7.8209 standard deviations of Log10(Expression Ratio)

Question: What about the “Response of gene ARG1” value (FK506 7.5 μg/ml) of the same molecule?
Answer: 4.2215 standard deviations of Log10(Expression Ratio)

Question: What about the “Response of gene ARG4” value (FK506 7.5 μg/ml) of the same molecule?
Answer: 3.2973 standard deviations of Log10(Expression Ratio)

Question: And the “Response of gene ARG5,6” value (FK506 7.5 μg/ml)?
Answer: 2.7433 standard deviations of Log10(Expression Ratio)

Question: What about the “Response of gene ARO3” value (FK506 7.5 μg/ml) of the same molecule?
Answer: 0.6059 standard deviations of Log10(Expression Ratio)

Question: What about the “Response of gene ECM13” value (FK506 7.5 μg/ml) of the same molecule?
Answer: 2.5343 standard deviations of Log10(Expression Ratio)

Question: And the “Response of gene HIS3” value (FK506 7.5 μg/ml)?
Answer: 1.8024 standard deviations of Log10(Expression Ratio)

Question: And the “Response of gene HIS5” value (FK506 7.5 μg/ml)?
Answer: 2.8414 standard deviations of Log10(Expression Ratio)

Question: What about the “Response of gene MET16” value (FK506 7.5 μg/ml) of the same molecule?
Answer: 0.1621 standard deviations of Log10(Expression Ratio)

Question: What about the “Response of gene NCE3” value (FK506 7.5 μg/ml) of the same molecule?
Answer: 1.569 standard deviations of Log10(Expression Ratio)

Question: And the “Response of gene PCL5” value (FK506 7.5 μg/ml)?
Answer: 2.2898 standard deviations of Log10(Expression Ratio)

Question: And the “Response of gene SNO1” value (FK506 7.5 μg/ml)?
Answer: 2.538 standard deviations of Log10(Expression Ratio)

Question: And the “Response of gene SNZ1” value (FK506 7.5 μg/ml)?
Answer: 2.538 standard deviations of Log10(Expression Ratio)

Question: And the “Response of gene SSU1” value (FK506 7.5 μg/ml)?
Answer: 0.5059 standard deviations of Log10(Expression Ratio)

Question: And the “Response of gene YBR047W” value (FK506 7.5 μg/ml)?
Answer: 1.1596 standard deviations of Log10(Expression Ratio)

Question: And the “Response of gene YER024W” value (FK506 7.5 μg/ml)?
Answer: 1.1526 standard deviations of Log10(Expression Ratio)

Question: What about the “Response of gene YGL117W” value (FK506 7.5 μg/ml) of the same molecule?
Answer: 2.699 standard deviations of Log10(Expression Ratio)

Question: And the “Response of gene YGL184C” value (FK506 7.5 μg/ml)?
Answer: −0.4586 standard deviations of Log10(Expression Ratio)

Question: And the “Response of gene YHR029C” value (FK506 7.5 μg/ml)?
Answer: 2.3813 standard deviations of Log10(Expression Ratio)

Question: What about the “Response of gene YMR195W” value (FK506 7.5 μg/ml) of the same molecule?
Answer: 0.8879 standard deviations of Log10(Expression Ratio)

Question: And the “Geneset Average response” value (FK506 16 μg/ml)?
Answer: 19.9913 standard deviations of Log10(Expression Ratio)

Question: And the “Response of gene ARG1” value (FK506 16 μg/ml)?
Answer: 4.711 standard deviations of Log10(Expression Ratio)

Question: And the “Response of gene ARG4” value (FK506 16 μg/ml)?
Answer: 4.5135 standard deviations of Log10(Expression Ratio)

Question: And the “Response of gene ARG5,6” value (FK506 16 μg/ml)?
Answer: 6.0457 standard deviations of Log10(Expression Ratio)

Question: What about the “Response of gene ARO3” value (FK506 16 μg/ml) of the same molecule?
Answer: 4.0553 standard deviations of Log10(Expression Ratio)

Question: What about the “Response of gene CPA2” value (FK506 16 μg/ml) of the same molecule?
Answer: 4.1093 standard deviations of Log10(Expression Ratio)

Question: What about the “Response of gene ECM13” value (FK506 16 μg/ml) of the same molecule?
Answer: 4.8689 standard deviations of Log10(Expression Ratio)

Question: What about the “Response of gene HIS3” value (FK506 16 μg/ml) of the same molecule?
Answer: 4.6461 standard deviations of Log10(Expression Ratio)

Question: What about the “Response of gene HIS5” value (FK506 16 μg/ml) of the same molecule?
Answer: 6.0052 standard deviations of Log10(Expression Ratio)

Question: What about the “Response of gene MET16” value (FK506 16 μg/ml) of the same molecule?
Answer: 3.3857 standard deviations of Log10(Expression Ratio)

Question: And the “Response of gene NCE3” value (FK506 16 μg/ml)?
Answer: 5.5819 standard deviations of Log10(Expression Ratio)

Question: What about the “Response of gene PCL5” value (FK506 16 μg/ml) of the same molecule?
Answer: 5.4688 standard deviations of Log10(Expression Ratio)

Question: And the “Response of gene SNO1” value (FK506 16 μg/ml)?
Answer: 5.8877 standard deviations of Log10(Expression Ratio)

Question: And the “Response of gene SNZ1” value (FK506 16 μg/ml)?
Answer: 5.8877 standard deviations of Log10(Expression Ratio)

Question: And the “Response of gene SSU1” value (FK506 16 μg/ml)?
Answer: 4.6461 standard deviations of Log10(Expression Ratio)

Question: What about the “Response of gene YBR047W” value (FK506 16 μg/ml) of the same molecule?
Answer: 3.3107 standard deviations of Log10(Expression Ratio)

Question: And the “Response of gene YER024W” value (FK506 16 μg/ml)?
Answer: 4.6342 standard deviations of Log10(Expression Ratio)

Question: What about the “Response of gene YGL117W” value (FK506 16 μg/ml) of the same molecule?
Answer: 4.9827 standard deviations of Log10(Expression Ratio)

Question: What about the “Response of gene YGL184C” value (FK506 16 μg/ml) of the same molecule?
Answer: 2.7166 standard deviations of Log10(Expression Ratio)

Question: What about the “Response of gene YHR029C” value (FK506 16 μg/ml) of the same molecule?
Answer: 5.0446 standard deviations of Log10(Expression Ratio)

Question: And the “Response of gene YMR195W” value (FK506 16 μg/ml)?
Answer: 4.0983 standard deviations of Log10(Expression Ratio)

Question: And the “Geneset Average response” value (FK506 50 μg/ml)?
Answer: 21.3315 standard deviations of Log10(Expression Ratio)

Question: And the “Response of gene ARG1” value (FK506 50 μg/ml)?
Answer: 5.7996 standard deviations of Log10(Expression Ratio)

Question: And the “Response of gene ARG4” value (FK506 50 μg/ml)?
Answer: 5.8858 standard deviations of Log10(Expression Ratio)

Question: What about the “Response of gene ARG5,6” value (FK506 50 μg/ml) of the same molecule?
Answer: 5.2406 standard deviations of Log10(Expression Ratio)

Question: And the “Response of gene ARO3” value (FK506 50 μg/ml)?
Answer: 5.7035 standard deviations of Log10(Expression Ratio)

Question: And the “Response of gene CPA2” value (FK506 50 μg/ml)?
Answer: 4.0958 standard deviations of Log10(Expression Ratio)

Question: What about the “Response of gene ECM13” value (FK506 50 μg/ml) of the same molecule?
Answer: 3.1882 standard deviations of Log10(Expression Ratio)

Question: And the “Response of gene HIS3” value (FK506 50 μg/ml)?
Answer: 5.2637 standard deviations of Log10(Expression Ratio)

Question: What about the “Response of gene HIS5” value (FK506 50 μg/ml) of the same molecule?
Answer: 4.9557 standard deviations of Log10(Expression Ratio)

Question: What about the “Response of gene MET16” value (FK506 50 μg/ml) of the same molecule?
Answer: 4.855 standard deviations of Log10(Expression Ratio)

Question: And the “Response of gene NCE3” value (FK506 50 μg/ml)?
Answer: 3.3928 standard deviations of Log10(Expression Ratio)

Question: What about the “Response of gene PCL5” value (FK506 50 μg/ml) of the same molecule?
Answer: 5.2339 standard deviations of Log10(Expression Ratio)

Question: What about the “Response of gene SNO1” value (FK506 50 μg/ml) of the same molecule?
Answer: 5.5665 standard deviations of Log10(Expression Ratio)

Question: And the “Response of gene SNZ1” value (FK506 50 μg/ml)?
Answer: 5.5665 standard deviations of Log10(Expression Ratio)

Question: What about the “Response of gene SSU1” value (FK506 50 μg/ml) of the same molecule?
Answer: 3.5782 standard deviations of Log10(Expression Ratio)

Question: And the “Response of gene YBR047W” value (FK506 50 μg/ml)?
Answer: 4.248 standard deviations of Log10(Expression Ratio)

Question: What about the “Response of gene YER024W” value (FK506 50 μg/ml) of the same molecule?
Answer: 5.8934 standard deviations of Log10(Expression Ratio)

Question: What about the “Response of gene YGL117W” value (FK506 50 μg/ml) of the same molecule?
Answer: 5.9066 standard deviations of Log10(Expression Ratio)

Question: And the “Response of gene YGL184C” value (FK506 50 μg/ml)?
Answer: 5.3106 standard deviations of Log10(Expression Ratio)

Question: And the “Response of gene YHR029C” value (FK506 50 μg/ml)?
Answer: 5.5781 standard deviations of Log10(Expression Ratio)

Question: What about the “Response of gene YMR195W” value (FK506 50 μg/ml) of the same molecule?
Answer: 4.6141 standard deviations of Log10(Expression Ratio)
